# In article PMC12717099, “Peptidoglycan recruitment by a penicillin binding protein” (Nature Communications, 2025):
# Legend:
# Assay type in all cases: binding, Enterococcus faecium
# [1] = test system: PBP5; test: 1D 1H STD NMR of stem peptides with PBP5; details: for STD % to SP1: normalised to highest SP1:PBP5 value; for STD amplification factor: protein:peptide 1:100, 2 s saturation, 308 K
# Description: (§1) Total saturation time for STD measurements was 2 s.
# (§2) Overlapped peaks were completely excluded from the analysis.
# [2] = test system: PBP5:PenG complex (1:8); test: NMR CSP titration of stem peptides into PenG-saturated PBP5; details: PBP5:PenG 1:8, then SP titration
# Method: Data was processed using Topspin 4.1.4 (Bruker) and analyzed using NMRFAM-SPARKY 1.3 and Poky (build number 20240829)[20],[21]. The sequence-specific backbone assignment of PBP5 is publicly available at BMRBID 51690.
# SPs (SP1 to SP7) were titrated into 0.5 mM (^2H,^15N)-labeled and 0.1 mM (^2H,^15N)/^13C ILV labeled PBP5 at molar ratios of 0:1, 5:1, 10:1, 20:1, 40:1, 60:1, and 80:1 (stem peptide/SP:PBP5; molar ratios). 2D [^1H,^15N] TROSY or 2D [^1H,^13C] HMQC spectra were recorded for each titration point. SPs were solubilized in NMR buffer. Chemical shift perturbations (Δδ) between PBP5 and SP bound PBP5 spectra were calculated using Eq. 1,1 Δδppm=ΔδH^2+ΔδX/Y^2 where, X is ^15N or ^13C and Y is the constant i.e., 10 for ^15N and 4 for ^13C.
# Residues with significant CSPs were identified by calculating the standard deviation of all CSPs (σ), then excluding any CSPs larger than average+2σ, recalculating σ as a new corrected σ0, and then repetitively removing CSPs above 2σ0 until no additional CSPs can be removed. CSPs above ≥2σ2 was the statistical threshold for ^1H/^15N backbone CSP analysis and ≥2xσ1 for ^1H/^13C methyl ILV data for the interaction of SP1 with PBP5. The same threshold values were used for all other peptides to allow for direct comparison with the SP1/PBP5 interaction. […]
# [3] = test system: PBP5:PenG complex; test: 1D 1H STD NMR of stem peptides with PBP5:PenG; details: for STD amplification factor: PenG-saturated PBP5, 2 s saturation
# Description: as §1, §2
substance,measurement,setting,value
D-Lac-L-Ala-D-iGln-L-Lys(D-iAsn)-D-Ala-D-Ala [SP1],STD amplification factor as fraction of highest SP1:PBP5 value,"[1]; 1H DA4α,LA1α",0.3688
same,STD % to SP1,"[1]; 1H DA4α,LA1α",36.8831%
same,STD amplification factor,"[1]; 1H DA4α,LA1α",9.925
same,STD amplification factor as fraction of highest SP1:PBP5 value,"[1]; 1H DA4β, DLacβ",0.2569
same,STD % to SP1,"[1]; 1H DA4β, DLacβ",25.6923%
same,STD amplification factor,"[1]; 1H DA4β, DLacβ",6.913
same,STD amplification factor as fraction of highest SP1:PBP5 value,[1]; 1H DA5α,0.6484
same,STD % to SP1,[1]; 1H DA5α,64.837%
same,STD amplification factor,[1]; 1H DA5α,17.4466
same,STD amplification factor as fraction of highest SP1:PBP5 value,[1]; 1H DA5β,0.3281
same,STD % to SP1,[1]; 1H DA5β,32.8081%
same,STD amplification factor,[1]; 1H DA5β,8.828
same,STD amplification factor as fraction of highest SP1:PBP5 value,"[1]; 1H DQ2α,Dlacα,iNα",0.2333
same,STD % to SP1,"[1]; 1H DQ2α,Dlacα,iNα",23.3322%
same,STD amplification factor,"[1]; 1H DQ2α,Dlacα,iNα",6.278
same,STD amplification factor as fraction of highest SP1:PBP5 value,[1]; 1H DQ2β (first listed),0.816
same,STD % to SP1,[1]; 1H DQ2β (first listed),81.5959%
same,STD amplification factor,[1]; 1H DQ2β (first listed),21.9561
same,STD amplification factor as fraction of highest SP1:PBP5 value,[1]; 1H DQ2β (second listed),0.8819
same,STD % to SP1,[1]; 1H DQ2β (second listed),88.186%
same,STD amplification factor,[1]; 1H DQ2β (second listed),23.7294
same,STD amplification factor as fraction of highest SP1:PBP5 value,[1]; 1H DQ2γ,0.3832
same,STD % to SP1,[1]; 1H DQ2γ,38.3191%
same,STD amplification factor,[1]; 1H DQ2γ,10.3111
same,STD amplification factor as fraction of highest SP1:PBP5 value,[1]; 1H K3α,0.5115
same,STD % to SP1,[1]; 1H K3α,51.1543%
same,STD amplification factor,[1]; 1H K3α,13.7648
same,STD amplification factor as fraction of highest SP1:PBP5 value,[1]; 1H K3β,1
same,STD % to SP1,[1]; 1H K3β,100%
same,STD amplification factor,[1]; 1H K3β,26.9084
same,STD amplification factor as fraction of highest SP1:PBP5 value,[1]; 1H K3δ,0.7475
same,STD % to SP1,[1]; 1H K3δ,74.7509%
same,STD amplification factor,[1]; 1H K3δ,20.1143
same,STD amplification factor as fraction of highest SP1:PBP5 value,[1]; 1H K3ε,0.2891
same,STD % to SP1,[1]; 1H K3ε,28.9129%
same,STD amplification factor,[1]; 1H K3ε,7.78
same,STD amplification factor as fraction of highest SP1:PBP5 value,[1]; 1H LA1β,0.276
same,STD % to SP1,[1]; 1H LA1β,27.6026%
same,STD amplification factor,[1]; 1H LA1β,7.427
same,STD amplification factor as fraction of highest SP1:PBP5 value,[1]; 1H iNβ,0.3449
same,STD % to SP1,[1]; 1H iNβ,34.4916%
same,STD amplification factor,[1]; 1H iNβ,9.281
same,"CSPs in presence vs absence of penicillin, in words",[2],nearly identical
same,"STD amplification factor, ref to SP1 (fraction)","[3]; 1H DA4α,LA1α",0.3134
same,"STD, ref to SP1 (percent)","[3]; 1H DA4α,LA1α",31.3366
same,STD amplification factor,"[3]; 1H DA4α,LA1α",8.432
same,"STD amplification factor, ref to SP1 (fraction)","[3]; 1H DA4β, DLacβ",0.2401
same,"STD, ref to SP1 (percent)","[3]; 1H DA4β, DLacβ",24.0089
same,STD amplification factor,"[3]; 1H DA4β, DLacβ",6.4604
same,"STD amplification factor, ref to SP1 (fraction)",[3]; 1H DA5α,0.5713
same,"STD, ref to SP1 (percent)",[3]; 1H DA5α,57.1289
same,STD amplification factor,[3]; 1H DA5α,15.3725
same,"STD amplification factor, ref to SP1 (fraction)",[3]; 1H DA5β,0.2936
same,"STD, ref to SP1 (percent)",[3]; 1H DA5β,29.3585
same,STD amplification factor,[3]; 1H DA5β,7.9
same,"STD amplification factor, ref to SP1 (fraction)","[3]; 1H DQ2α,Dlacα,iNα",0.2074
same,"STD, ref to SP1 (percent)","[3]; 1H DQ2α,Dlacα,iNα",20.7354
same,STD amplification factor,"[3]; 1H DQ2α,Dlacα,iNα",5.58
same,"STD amplification factor, ref to SP1 (fraction)",[3]; 1H DQ2β (first listed),0.7176
same,"STD, ref to SP1 (percent)",[3]; 1H DQ2β (first listed),71.7627
same,STD amplification factor,[3]; 1H DQ2β (first listed),19.3102
same,"STD amplification factor, ref to SP1 (fraction)",[3]; 1H DQ2β (second listed),0.813
same,"STD, ref to SP1 (percent)",[3]; 1H DQ2β (second listed),81.3002
same,STD amplification factor,[3]; 1H DQ2β (second listed),21.8766
same,"STD amplification factor, ref to SP1 (fraction)",[3]; 1H DQ2γ,0.3426
same,"STD, ref to SP1 (percent)",[3]; 1H DQ2γ,34.2606
same,STD amplification factor,[3]; 1H DQ2γ,9.219
same,"STD amplification factor, ref to SP1 (fraction)",[3]; 1H K3α,0.4115
same,"STD, ref to SP1 (percent)",[3]; 1H K3α,41.1521
same,STD amplification factor,[3]; 1H K3α,11.0734
same,"STD amplification factor, ref to SP1 (fraction)",[3]; 1H K3β,0.9267
same,"STD, ref to SP1 (percent)",[3]; 1H K3β,92.6679
same,STD amplification factor,[3]; 1H K3β,24.9355
same,"STD amplification factor, ref to SP1 (fraction)",[3]; 1H K3δ,0.5468
same,"STD, ref to SP1 (percent)",[3]; 1H K3δ,54.6801
same,STD amplification factor,[3]; 1H K3δ,14.7135
same,"STD amplification factor, ref to SP1 (fraction)",[3]; 1H K3ε,0.1626
same,"STD, ref to SP1 (percent)",[3]; 1H K3ε,16.2603
same,STD amplification factor,[3]; 1H K3ε,4.3754
same,"STD amplification factor, ref to SP1 (fraction)",[3]; 1H LA1β,0.2447
same,"STD, ref to SP1 (percent)",[3]; 1H LA1β,24.4674
same,STD amplification factor,[3]; 1H LA1β,6.584
same,"STD amplification factor, ref to SP1 (fraction)",[3]; 1H iNβ,0.3143
same,"STD, ref to SP1 (percent)",[3]; 1H iNβ,31.4336
same,STD amplification factor,[3]; 1H iNβ,8.458
